Laboratory results reported in PubChem BioAssay (NCI).
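Where inhibition never reached the appropriate level, the endpoint shown equals the highest concentration tested. Otherwise, values were interpolated linearly from a five-concentration, 48-hour dose response in 96-well plates. Here, GI50 denotes the concentration required for 50% inhibition of growth. Definition used: TGI = concentration required for complete inhibition of growth.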

Key:
Assay in all cases: NCI tumour cell line growth inhibition, 48 h
NCI-H226 lung = system: NCI-H226 lung
ACHN renal = system: ACHN renal
M14 melanoma = system: M14 melanoma
NCI-H460 lung = system: NCI-H460 lung
DU-145 prostate = system: DU-145 prostate
SF-539 CNS = system: SF-539 CNS
HCT-15 colon = system: HCT-15 colon
RXF 393 renal = system: RXF 393 renal
KM12 colon = system: KM12 colon
NCI/ADR-RES ovarian = system: NCI/ADR-RES ovarian

Structure (SMILES) | GI50 (NCI-H226 lung) | TGI (NCI-H226 lung) | TGI (ACHN renal) | TGI (M14 melanoma) | TGI (NCI-H460 lung) | TGI (DU-145 prostate) | TGI (SF-539 CNS) | TGI (HCT-15 colon) | TGI (RXF 393 renal) | GI50 (KM12 colon) | TGI (KM12 colon) | TGI (NCI/ADR-RES ovarian)
O=C1C(N2CCN(CCOCCO)CC2)=C(Cl)C(=O)c2ncccc21 | > 100 µM | > 100 µM | 33.4 µM | 39.2 µM | > 100 µM | > 100 µM | 44.6 µM | 37.4 µM | 35.1 µM | > 100 µM | > 100 µM | > 100 µM
O=C1N2CCC[C@H]2CS1(=O)=O | – | 72.2 µM | 29.7 µM | 31.6 µM | 88.1 µM | 35.8 µM | > 100 µM | 29.4 µM | 21.7 µM | – | 30.8 µM | > 100 µM
Cc1c(OCc2cccc3ccccc23)ccc2c(=O)cc(SCCN3CCOCC3)oc12 | – | > 100 µM | > 100 µM | > 100 µM | > 100 µM | > 100 µM | > 100 µM | > 100 µM | > 100 µM | – | > 100 µM | > 100 µM
O=c1[nH]cc(N=Cc2cc(Cl)ccc2O)c(=O)[nH]1 | – | 98 µM | 61.6 µM | 48.9 µM | > 100 µM | 66.8 µM | 7.43 µM | > 100 µM | > 100 µM | – | > 100 µM | 53.6 µM
O=c1cc(-c2ccccc2)oc2c1ccc1[nH]c3ccccc3c(=O)c12 | – | > 100 µM | > 100 µM | > 100 µM | 36.9 µM | > 100 µM | > 100 µM | > 100 µM | > 100 µM | – | > 100 µM | > 100 µM
O=c1c2ccccc2nc(N/N=C/c2ccc([N+](=O)[O-])cc2)n1-c1ccccc1 | – | > 100 µM | 62.9 µM | > 100 µM | > 100 µM | > 100 µM | – | > 100 µM | 32.7 µM | – | > 100 µM | > 100 µM
CC(OP(=O)(O)O)C(N)C(=O)O (stereo not drawn) | – | > 100 µM | > 100 µM | > 100 µM | > 100 µM | > 100 µM | > 100 µM | > 100 µM | > 100 µM | – | > 100 µM | > 100 µM
O=C1c2ccccc2C2(c3ccc(F)cc3)NCCN12 (stereo not drawn) | – | > 100 µM | > 100 µM | > 100 µM | > 100 µM | > 100 µM | – | > 100 µM | > 100 µM | – | > 100 µM | > 100 µM
O=C1C=C(N2CCN(c3ncccn3)CC2)C(=O)c2c(O)ccc(O)c21 | – | > 100 µM | > 100 µM | > 100 µM | > 100 µM | > 100 µM | 55.7 µM | > 100 µM | – | – | > 100 µM | > 100 µM
Cc1cc(C)c2c(c1)C/C(=C\c1cccc(C)c1C(=O)O)C2=O | – | > 100 µM | > 100 µM | > 100 µM | > 100 µM | > 100 µM | > 100 µM | > 100 µM | > 100 µM | – | > 100 µM | –
